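Step 1: Grow cells in 96-well plates. Step 2: Expose to compound for 48 hours at 5 concentrations. Step 3: Interpolate endpoints linearly; if unreached, use highest concentration. The concentration for 50% growth inhibition is given as GI50. The concentration for full growth arrest is given as TGI.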

Test systems include HCT-15 colon; NCI-H226 lung; HCC-2998 colon; IGROV1 ovarian; UACC-257 melanoma; M14 melanoma; SK-MEL-2 melanoma; TK-10 renal; CCRF-CEM leukemia; RXF 393 renal.
Holding throughout (assay): DTP human tumour cell line panel, 48 h

Consider `CC(=O)c1ccc(Nc2nc(Nc3ccc(F)cc3)nc(Nc3ccc(F)cc3)n2)cc1`, for which the GI50 in the experiment on HCT-15 colon was 8.49 µM; in the experiment with NCI-H226 lung, 20.7 µM; in the experiment on HCC-2998 colon, 9.95 µM; in the experiment on IGROV1 ovarian it was 9.49 µM; with UACC-257 melanoma, 14.3 µM; in the experiment on M14 melanoma, 6.52 µM. In addition, the GI50 was 10.1 µM in the experiment on SK-MEL-2 melanoma, 15.6 µM in the experiment with TK-10 renal, 3.77 µM with CCRF-CEM leukemia and 3.15 µM in the experiment on RXF 393 renal. Besides, the TGI in the experiment with HCT-15 colon is greater than 100 µM; with NCI-H226 lung, greater than 100 µM; in the experiment with HCC-2998 colon it was greater than 100 µM; in the experiment on IGROV1 ovarian, 28.2 µM; in the experiment on UACC-257 melanoma it was greater than 100 µM; with M14 melanoma, greater than 100 µM. Moreover, the TGI in the experiment with SK-MEL-2 melanoma was 40.3 µM; in the experiment on TK-10 renal it was 42.2 µM; in the experiment with CCRF-CEM leukemia it was greater than 100 µM; with RXF 393 renal it was 11.5 µM.
Take `COc1cc2nc(-c3ccc(Cl)cc3)cc(OCCCN3CCCC3)c2cc1OC`: the GI50 with HCT-15 colon was 0.567 µM; in the experiment with NCI-H226 lung it was 0.898 µM; with HCC-2998 colon, 1.86 µM; in the experiment on IGROV1 ovarian it was 0.881 µM; in the experiment with UACC-257 melanoma it was 1.96 µM; with M14 melanoma it was 0.402 µM. The GI50 in the experiment with SK-MEL-2 melanoma was 2.16 µM; in the experiment with TK-10 renal it was 2.33 µM; in the experiment with CCRF-CEM leukemia, 2.14 µM; with RXF 393 renal, 1.17 µM. Moreover, the TGI in the experiment on HCT-15 colon stood at 11.5 µM; with NCI-H226 lung it was 3.21 µM; in the experiment on HCC-2998 colon it was 6.01 µM; with IGROV1 ovarian, 11.8 µM; in the experiment on UACC-257 melanoma it was 4.87 µM; in the experiment on M14 melanoma it was 1.51 µM. Also, the TGI was determined as 5.22 µM with SK-MEL-2 melanoma, 7.41 µM in the experiment with TK-10 renal, 7.09 µM in the experiment with CCRF-CEM leukemia and 3.78 µM with RXF 393 renal.
For the compound `COc1cc2oc(-c3ccc(O)cc3O)c(CC=C(C)C)c(=O)c2c(O)c1/C=C/C(C)C`, the TGI in the experiment with HCT-15 colon is 10.3 µM; in the experiment with NCI-H226 lung, 9.98 µM; with HCC-2998 colon, 4.6 µM; in the experiment with IGROV1 ovarian, 12 µM; in the experiment on UACC-257 melanoma, 17.5 µM; in the experiment on M14 melanoma, 3.56 µM. Moreover, the TGI with SK-MEL-2 melanoma worked out at 17.9 µM; in the experiment on TK-10 renal it was 14.1 µM; in the experiment on CCRF-CEM leukemia, 5.07 µM; in the experiment with RXF 393 renal it was 4.61 µM.

The term GI50 denotes the concentration that inhibits growth by half. By TGI is commonly meant the concentration at which net growth stops. Read a high TGI as less potent growth arrest.

The values are drawn from PubChem BioAssay (NCI).
